The source of these data is patent US9801832B2, “Pharmaceutical composition having synergistic action of direct catalase inhibitors and modulators of no metabolism or of extracellular superoxide anion production which lead to catalase destruction” (Universitaetsklinikum Freiburg, priority 2012, dated 2017).

For experiment [1], the system named is tumor cells. To be noted: cited from earlier work.
In experiment [2] the test system is MKN-45 gastric carcinoma cells. Briefly: Induction of apoptosis in MKN-45 gastric carcinoma cells (percentages of apoptotic cells). To be noted: for induction of apoptosis / dependence of the induction of apoptosis on singlet oxygen: substance alone; for induction of apoptosis: 12 500 MKN-45 cells in 100 μl, 4-6.5 hours at 37° C.; for dependence of the induction of apoptosis on singlet oxygen: 2 mM histidine (singlet oxygen scavenger). The format is cell-based, human. As to the method:
12 500 MKN-45 cells in 100 μl (duplicate batches) were treated with the given concentrations of salicylic acid or remained free from salicylic acid. After 10 minutes the given concentrations of cyanidine were added.
12 500 MKN-45 cells in 100 μl (duplicate batches) were treated with 0.1 μg/ml salicylic acid or remained free from salicylic acid (control). […] After 6.5 hours the percentages of apoptotic cells were determined in duplicate batches.
12 500 MKN-45 cells in 100 μl (duplicate batches) either received no additive (control), 2 mM of the singlet oxygen scavenger histidine or 25 μM Caspase-8 inhibitor. […] After another 15 minutes cyanidine was added in the given concentrations. After 6.5 hours of incubation at 37° C. the percentages of apoptotic cells were determined.
12 500 MKN-45 cells in 100 μl (duplicate batches) either received no additive (control), 2 mM of the singlet oxygen scavenger histidine or 25 μM Caspase-8 inhibitor. […] After 6.5 hours incubation at 37° C. the percentage of apoptotic cells was determined. […]
12 500 MKN-45 cells in 100 μl medium were incubated with increasing concentrations of the given active ingredients, in the presence or absence of 0.1 μg/ml salicylic acid for 6 hours and then, the percentages of the apoptotic cells were determined (repeated determination).

Experiment [3] concerns tumor cells. The note with it: cited from earlier work. The source holds these as a separate data set.
Experiment [4] has as its system thrombocytes. To be noted: cited from earlier work.
Experiment [5] deals with Gumbus lymphoma cells. As to the kind of experiment: Induction of apoptosis in Gumbus lymphoma cells (percentages of apoptotic cells). It counts as cell-based, human. To be noted: for dependence of the induction of apoptosis on singlet oxygen: 2 mM histidine (singlet oxygen scavenger); for dependence of the induction of apoptosis on singlet oxygen / ROS signal path of the induced apoptosis (inhibitor profile): Gumbus cells; for ROS signal path of the induced apoptosis (inhibitor profile): L-NAME, taurine, ABH. As to the method:
12 500 MKN-45 gastric carcinoma cells (A) or 25 000 Gumbus lymphoma cells (B) in 100 μl complete medium each either remained untreated (control) or received 2 mM histidine (singlet oxygen scavenger), 50 mM taurine (HOCl scavenger), or 2.4 mM L-NAME (NOS inhibitor). In Experiment A, additionally 10 mM mannitol (hydroxyl radical scavenger), 150 μM ABH (peroxidase inhibitor), 100 U/ml MnSOD (superoxide anion scavenger) and 25 μM FeTPPS (peroxynitrite decomposer) were used. Subsequently, the given concentrations of salicylic acid were added. After 5 hours (A) and 4 hours, respectively, of incubation at 37° C. the percentages of apoptotic cells were determined in duplicate batches according to the classical apoptosis features nuclear condensation, nuclear fragmentation, and membrane blebbing. Here, at least 200 cells were evaluated pre batch. […] Inhibitors: singlet oxygen scavenger histidine 2 mM; HOCl scavenger taurine 50 mM, NOS inhibitor L-NAME 2.4 mM, peroxidase inhibitor ABH 150 μM.

Experiment [6] concerns the target T1, tumor cell catalase (Homo sapiens, UniProt P04040).
T1 sequence (P04040 2-527 limits assumed): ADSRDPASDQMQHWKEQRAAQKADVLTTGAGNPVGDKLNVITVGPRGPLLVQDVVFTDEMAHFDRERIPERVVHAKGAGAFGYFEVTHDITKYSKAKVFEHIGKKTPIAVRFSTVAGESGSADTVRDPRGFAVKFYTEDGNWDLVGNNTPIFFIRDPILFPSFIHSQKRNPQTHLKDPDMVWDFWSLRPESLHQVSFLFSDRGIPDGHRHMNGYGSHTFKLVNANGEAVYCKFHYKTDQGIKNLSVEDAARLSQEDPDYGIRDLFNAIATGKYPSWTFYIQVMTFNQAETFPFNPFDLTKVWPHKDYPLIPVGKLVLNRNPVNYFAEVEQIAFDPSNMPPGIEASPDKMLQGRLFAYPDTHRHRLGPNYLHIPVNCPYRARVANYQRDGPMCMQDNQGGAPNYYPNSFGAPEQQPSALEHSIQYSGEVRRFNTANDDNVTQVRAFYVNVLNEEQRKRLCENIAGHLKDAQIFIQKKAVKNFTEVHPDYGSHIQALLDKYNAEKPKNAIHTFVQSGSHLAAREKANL
As to the kind of experiment: Catalase inhibition/inactivation in MKN-45 cells by challenge with exogenous peroxynitrite, NO donor or glucose oxidase. Further details: endogenous in cells; host or cells: MKN-45 gastric carcinoma cells. The note with it: 200 μM peroxynitrite. It counts as cell-based. As to the method:
Direct catalase inhibition with relevance to the induction of apoptosis in tumor cells can be determined by pre-incubating tumor cells at first in the presence of the singlet oxygen scavenger histidine (2 mM) with the substance to be tested in increasing concentration (between 10 and 30 minutes at 37° C.) and subsequently adding peroxynitrite in the concentration range between 10 and 200 μM. The tumor cells are protected from the apoptosis-triggering effect of peroxynitrite by their membranous catalase. An inhibition of the catalase partially or completely cancels this protection and in the presence of peroxynitrite leads to the induction of apoptosis. The presence of 2 mM histidine ensures that the measured induction of apoptosis is not a singlet oxygen-mediated inactivation of the catalase by destruction of its active center. Alternatively, instead of addition of histidine inhibition of the NADPH oxidase by 100 μM AEBSF may take place. With prevented superoxide anion production also no singlet oxygen formation in the test system is possible.
4000 MKN-45 cells per 100 μl in […] were treated with increasing concentrations of monoclonal antibodies against catalase “Anti-KAT” or Anti-EGFR. After 15 minutes either 200 μM peroxynitrite (“PON”), 0.5 mM DEA-NONOate (rapidly decomposing NO donor), or 2 mU/ml glucose oxidase (GOX) that continuously generates hydrogen peroxide were added. After another two hours at 37° C. the percentages of apoptotic cells were determined in duplicate batches.
The principle of identification is based on the fact that tumor cells (here MKN-45 gastric carcinoma cells) are protected from the apoptosis-triggering effect of exogenously added peroxynitrite by their membranous catalase. Addition of catalase inhibitors sensitizes the cells to the effect of exogenous peroxynitrite.
The experiment was performed in analogy to that described in FIG. 9 except that instead of Anti-KAT a monoclonal antibody against SOD was used. The cells were tested in two different densities, namely 4000 and 12 500 cells per 100 μl. The challenge to test the activity of catalase was carried out with 200 μM peroxynitrite, or 0.5 mM DEA NONOate or 2 mU/ml GOX.
Subsequently, 200 μM or no peroxynitrite was added. After 1.5 hours the percentages of apoptotic cells were determined in duplicate batches.
Subsequently, 200 μM or no peroxynitrite was added. After 1 hour the percentages of apoptotic cells were determined in duplicate batches.
12 500 MKN-45 cells in 100 μl medium received 100 μM AEBSF or no additive. After 15 minutes the given concentrations of cyanidine were added and the batches were incubated for 15 minutes at 37° C. Subsequently, 200 μM peroxynitrite (PON) were added or the batches were not treated with peroxynitrite (control). After 1 hour the percentages of apoptotic cells were determined in duplicate batches.
12 500 MKN-45 cells received no addition (control), or 2 mM histidine, or 100 μM AEBSF or 2.4 mM L-NAME immediately before the addition of the given concentrations of salicylic acid (“0 min”) or 20 minutes after addition of salicyl. 20 minutes after the addition of salicylic acid 200 μM peroxynitrite (PON) were added to all batches except the control batches. After another 2 hours the percentages of apoptotic cells were determined in duplicates.

Turning to `Nc1nc[nH]n1` [3-aminotriazole], in experiment [1], the “sensitivity of tumor cells for ROS signaling-mediated apoptosis (autocrine and by interaction with non-transformed cells)” value is given as “become sensitive for these two processes”.

Turning to `Oc1ccc(C=Cc2cc(O)cc(O)c2)cc1` [resveratrol], the “synergistic interaction with salicylic acid in the induction of apoptosis” value in experiment [2] (0.1 μg/ml salicylic acid, MKN-45, 6 hours (FIGS. 22-25)) is “synergistically reacts”. In addition, the induction of apoptosis entry in experiment [2] is recorded as “still does not lead to a significant induction of apoptosis”. For the same compound, the superoxide anion production entry in experiment [3] is recorded as “leads to a dramatic increase of the superoxide anion production”. In experiment [4] (6.25 and 12.5 μg/ml), the “minor increase of the superoxide anion production” value is recorded as “statistically insignificant”. The “production of superoxide anions, hydrogen peroxide, and singlet oxygen” value in experiment [4] was “leads to a reduction of the production of superoxide anions, hydrogen peroxide, and singlet oxygen”.

As for `O=C(O)c1ccccc1O` [salicylic acid], in experiment [2], the “synergism with cyanidine in the induction of apoptosis” value was “Synergism is achieved”, the “synergism with taxol in the induction of apoptosis” value is given as “Synergism is achieved” and the induction of apoptosis entry is on record as “induces ROS-dependent induction of apoptosis”. Further, the “induction of apoptosis, substance alone at the concentration of the combination” value in experiment [2] (0.15 ng/ml cyanidine alone, 0.08 μg/ml salicylic acid alone, MKN-45 (FIG. 16)) is recorded as “remained ineffective”. The “induction of apoptosis, alone at 0.1 μg/ml” value in experiment [2] (0.1 μg/ml, MKN-45 (FIG. 18)) is given as “ineffective in itself”. For the same compound, the “ROS signal path of the induced apoptosis (inhibitor profile)” value (“ROS signal path … (inhibitor profile)” below) in experiment [2] (MKN-45, L-NAME, FeTPPS, taurine, ABH) is listed as “In the low concentration range of the salicylic acid preferably the NO/peroxynitrite signal path runs, with higher concentrations the HOCl path predominates”. For the same compound, the “concentration up to which almost no effect on apoptosis is shown” value in experiment [2] (administered alone, MKN-45, 6 hours (FIG. 16)) was “up to 0.32 μg/ml”. Besides, in experiment [2] (MKN-45), the “dependence of the induction of apoptosis on singlet oxygen” value (shortened to “dependence of the induction of apoptosis”) was “does not depend on singlet oxygen”. In experiment [5], the “dependence of the induction of apoptosis” value is listed as “does not depend on singlet oxygen” and the “ROS signal path … (inhibitor profile)” value is recorded as “In the low concentration range of the salicylic acid preferably the NO/peroxynitrite signal path runs, with higher concentrations the HOCl path predominates”. Besides, the induction of apoptosis result in experiment [5] (substance alone, 25 000 Gumbus lymphoma cells in 100 μl, 4 hours at 37° C.) is on record as “induces ROS-dependent induction of apoptosis”. In addition, in experiment [6] (6.25 ng/ml alone, MKN-45 (FIG. 21)), the “catalase inactivation, alone at the chosen concentration” value was “almost no catalase inactivation”. The “catalase inhibition / sensitization to peroxynitrite with inhibited superoxide anion synthesis” value in experiment [6] (100 μM AEBSF, MKN-45) is given as “independent of the superoxide anion synthesis”. Also, the “inhibition of tumor cell catalase (sensitization to exogenous peroxynitrite)” value in experiment [6] (MKN-45) is “inhibits the catalase of the tumor cells”. The “requirement of singlet oxygen, superoxide anions and NO for catalase inhibition/inactivation” value in experiment [6] (2 mM histidine, 100 μM AEBSF or 2.4 mM L-NAME, MKN-45 (FIGS. 14, 15)) was “independent of superoxide anions, NO and singlet oxygen”.

As to `CC(=O)O[C@H]1C(=O)[C@@]2(C)[C@H]([C@H](OC(=O)c3ccccc3)[C@]3(O)C[C@H](OC(=O)[C@H](O)[C@@H](NC(=O)c4ccccc4)c4ccccc4)C(C)=C1C3(C)C)[C@]1(OC(C)=O)CO[C@@H]1C[C@@H]2O` [taxol], the “concentration up to which a necessary involvement of Caspase-8 can be seen” value in experiment [2] (alone, 25 μM Caspase-8 inhibitor, MKN-45, 6.5 hours (FIG. 19)) is recorded as “up to 370 ng/ml”. Besides, the “dependence of the induction of apoptosis” value in experiment [2] (MKN-45) was “depends on singlet oxygen”. Moreover, in experiment [5], the “dependence of the induction of apoptosis” value is given as “caused by a fast singlet oxygen-dependent step that inactivates catalase within the first hour” and the “ROS signal path … (inhibitor profile)” value is “at low concentrations of taxol is via the NO/peroxynitrite path, at higher concentrations via the HOCl path”. Further, the “synergistic effect with salicylic acid on catalase inactivation” value in experiment [6] (6.25 ng/ml salicylic acid, MKN-45, 1.5 hours (FIG. 21)) was “synergistic effect on the catalase inactivation”.
